Measured values from patent US20220008402A1, “INCREASED E-CADHERIN EXPRESSION OR ACTIVITY FOR THE TREATMENT OF INFLAMMATORY DISEASES” (The Cleveland Clinic Foundation, priority 2020, published 2022).
Entries after “also recorded” stand apart in the source; their conditions may differ.

Columns and labels:
Type in all cases: cell-based, human
T84 cell monolayers [1] = assay: Immunofluorescence labeling of adherens and tight junctions (E-cadherin, ZO-1)
Description: (§1) FIG. 5: E-cadherin-enhancing drugs prevent cytokine-induced disruption of epithelial adherens junctions. Confluent T84 cell monolayers were pretreated with either vehicle, or ECU (10 μM) for 24 hours. Afterwards, cells were exposed to a combination of TNFα (10 ng/ml) and IFNγ (50 ng/ml) with and without ECU for 48 h. Cells were fixed and structure of adherens was determined by immunolabeling of E-cadherin. Arrows point on disruption of normal E-cadherin labeling in cytokine-exposed, vehicle-treated cells.
as §1, with “FIG. 6:” for “FIG. 5:”, “epithelial tight” for “epithelial adherens”, “with or” for “with and”, “of tight junctions” for “of adherens”, “by ZO-1 immunolabeling.” for “by immunolabeling of E-cadherin.”, “normal ZO-1” for “normal E-cadherin”
In order to visualize structure of epithelial junctions, cultured colonic epithelial cell monolayers were fixed and permeabilized with 100% methanol at −20° C. Fixed samples were blocked for 60 min in HBSS containing 1% bovine serum albumin, followed by a 60-min incubation with primary antibodies against E-cadherin (BD Bioscience) and ZO-1 (Thermo-Fisher). Samples were then washed and incubated with Alexa-Fluor-488-conjugated donkey anti-rabbit and Alexa-Fluor-555—conjugated donkey anti-mouse secondary antibodies for 60 min, rinsed with blocking buffer, and mounted on slides with ProLong Antifade mounting reagent (Thermo-Fisher). Immunolabeled cell monolayers were imaged using a Leica SP8 confocal microscope (Wentzler, Germany). The Alexa Fluor 488 and 555 signals were acquired sequentially in frame-interlace mode to eliminate cross talk between channels. Images were processed using Adobe Photoshop. The images shown are representative of at least three experiments, with multiple images taken per slide. […]

T84 cell monolayers [2] = assay: Wound healing assay; conditions: 10 μM pretreatment 24 h, migration 24-48 hours
Description: FIG. 8: E-cadherin-enhancing drug promote collective migration of intestinal epithelial cells. Confluent T84 cell monolayers were pretreated with either vehicle, ECU (10 μM) or ML327 (10 μM) for 24 hours. Afterwards, cell monolayers were wounded and allowed to migrate into wound area in the presence of the drugs. Cell monolayers were photographed and wound closure was calculated at the indicated times. Data is presented as mean ±SE (n=3); **P<0.05, ***P<0.01.
Confluent epithelial cell monolayers were mechanically wounded by making a thin scratch wound with a 200 μl pipette tip. The bottom of the well was marked to define the position of the wound and the monolayers were supplied with fresh cell culture medium. The images of a cell-free area at the marked region were acquired at the indicated times after wounding using an inverted bright field microscope equipped with a camera. The percentage of wound closure was calculated using an Image J software (NIH, Bethesda, Md.).
Finally, the effects of E-cadherin-enhancing drugs on epithelial restitution (wound healing) were examined. This is an important question given the fact that epithelial wounds are frequently formed in inflamed intestinal mucosa of IBD patients and wound healing is necessary to restore the integrity of the gut barrier and to achieve remission of chronic inflammatory diseases. […]

T84 cell monolayers [3] = assay: Cytokine-induced apoptosis, immunoblotting of PARP, cleaved PARP, cleaved caspase-3; conditions: 10 μM pretreatment 24 h, then IFNγ 50 ng/ml alone or with TNFα 10 ng/ml, 48 h
Description: FIG. 7: E-cadherin-enhancing drugs attenuate cytokine-induced cell death. Confluent T84 cell monolayers were pretreated with either vehicle, or ECU (10 μM) for 24 h. Afterwards, cells were exposed to either IFNγ (50 ng/ml) alone, or its combination with TNFα (10 ng/ml) with and without addition of ECU for additional 48h. Cell were lysed and levels of different apoptotic markers were determined by immunoblotting analysis.
To prepare total cell lysates, epithelial cell monolayers were scraped and homogenized using a Dounce homogenizer in RIPA buffer (20 mM Tris, 50 mM NaCl, 2 mM EDTA, 2 mM EGTA, 1% sodium deoxycholate, 1% Triton X-100 (TX-100), and 0.1% SDS, pH 7.4) containing protease inhibitor cocktail and phosphatase inhibitor cocktails 2 and 3 (Sigma-Aldrich). The obtained total cell lysates were cleared by centrifugation (20 min at 14,000×g), diluted with 2×SDS sample loading buffer and boiled. SDS-polyacrylamide gel electrophoresis was conducted using a standard protocol with equal amounts of total protein (10 or 20 μg) loaded per each lane. The separated proteins were transferred to nitrocellulose membranes and the membranes were blocked with 5% non-fat milk. […]

[4] = 10 μM pretreatment 24 h, then TNFα 10 ng/ml + IFNγ 50 ng/ml, 48 h

SMILES: O=C(NCCCCc1ccncc1)c1cc(-c2ccco2)on1 [ECU]
- Cytokine-induced adherens junction (AJ) disassembly, E-cadherin immunolabeling (T84 cell monolayers [1]; [4]): dramatic suppression of cytokine-induced disruption of adherens junctions; also recorded: completely prevented cytokine-induced junctional disassembly
- Cytokine-induced tight junction (TJ) disassembly, ZO-1 immunolabeling (T84 cell monolayers [1]; [4]): inhibition of cytokine-induced tight junction disruption; also recorded: completely prevented cytokine-induced junctional disassembly
- Normal AJ and TJ structure (T84 cell monolayers [1]; 10 μM, without cytokines): little effect
- Cell migration during wound healing (wound closure) (T84 cell monolayers [2]): significantly increased migration
- Cytokine-induced apoptosis (PARP cleavage, caspase-3 activation) (T84 cell monolayers [3]): prevented cytokine-induced PARP cleavage and caspase-3 activation
